Experimental data reported in patent US8962674B2 (Tokyo Institute of Technology, priority 2006, dated 2015).

SMILES | melting point [°C]
COc1cccc(/C=C/C(=O)CC(=O)/C=C/c2ccc(O)cc2)c1 [CU158, (1E,6E)-1-(4-hydroxyphenyl)-7-(3-methoxyphenyl)hepta-1,6-diene-3,5-dione] | 74 to 80
COc1cc(/C=C/C(=O)CC(=O)/C=C/c2ccc(O)cc2Cl)ccc1O [CU129, (1E,6E)-1-(2-chloro-4-hydroxyphenyl)-7-(4-hydroxy-3-methoxyphenyl)hepta-1,6-diene-3,5-dione] | 185 to 192
O=C(/C=C/c1cc(O)ccc1Br)CC(=O)CCc1ccc(O)cc1 [CU549, (E)-1-(2-bromo-5-hydroxyphenyl)-7-(4-hydroxyphenyl)hept-1-ene-3,5-dione] | 161 to 165
CCN(CC)c1ccc(/C=C/C(=O)CC(=O)/C=C/c2ccc(N(CC)CC)cc2OCC=C(C)C)c(OCC=C(C)C)c1 [CU431, (1E,6E)-1,7-bis(4-diethylamino-2-prenyloxyphenyl)hepta-1,6-diene-3,5-dione] | 107 to 113
COc1cc(/C=C/C(=O)CC(=O)/C=C/c2ccc(C)c(C)c2)ccc1O [CU057, (1E,6E)-1-(3,4-dimethylphenyl)-7-(4-hydroxy-3-methoxyphenyl)hepta-1,6-diene-3,5-dione] | 132 to 133
COc1ccc(/C=C/C(=O)CC(=O)/C=C/c2cccnc2)cc1O [CU217, (1E,6E)-1-(3-hydroxy-4-methoxyphenyl)-7-(pyridin-3-yl)hepta-1,6-diene-3,5-dione] | 174 to 175
COc1cc(/C=C/C(=O)CC(=O)/C=C/c2ccc(N(C)C)cc2Cl)ccc1O [CU196, (1E,6E)-1-(2-chloro-4-dimethylaminophenyl)-7-(4-hydroxy-3-methoxyphenyl)hepta-1,6-diene-3,5-dione] | 113 to 120
COCOc1cccc(O)c1/C=C/C(=O)CC(=O)/C=C/c1ccc(OC)c(O)c1 [CU313, (1E,6E)-1-[2-hydroxy-6-(methoxymethoxy)phenyl]-7-(3-hydroxy-4-methoxyphenyl)hepta-1,6-diene-3,5-dione] | 89 to 93
COc1ccc(/C=C/C(=O)CC(=O)/C=C/c2c(O)cccc2OC)cc1O [CU280, (1E,6E)-1-(2-hydroxy-6-methoxyphenyl)-7-(3-hydroxy-4-methoxyphenyl)hepta-1,6-diene-3,5-dione] | 181 to 185
O=C(/C=C/c1ccc(O)cc1)CC(=O)/C=C/c1cccc(-c2ccccc2)c1 [CU504, (1E,6E)-1-(biphenyl-3-yl)-7-(4-hydroxyphenyl)hepta-1,6-diene-3,5-dione] | 176 to 182
O=C(/C=C/c1ccc(O)cc1)CC(=O)/C=C/c1ccccc1C(F)(F)F [CU467, (1E,6E)-1-(4-hydroxyphenyl)-7-(2-trifluoromethylphenyl)hepta-1,6-diene-3,5-dione] | 181 to 185
COc1c(O)cccc1/C=C/C(=O)CC(=O)/C=C/c1ccc(O)cc1 [CU174, (1E,6E)-1-(4-hydroxyphenyl)-7-(3-hydroxy-2-methoxyphenyl)hepta-1,6-diene-3,5-dione] | 165 to 169
CCN(CC)c1ccc(/C=C/C(=O)CC(=O)/C=C/c2ccc(O)cc2)c(OCCO)c1 [CU430, (1E,6E)-1-[4-diethylamino-2-(2-hydroxyethoxy)phenyl]-7-(4-hydroxyphenyl)hepta-1,6-diene-3,5-dione] | 182 to 186
CS(=O)(=O)N1CCN(c2ccccc2/C=C/C(=O)CC(=O)/C=C/c2ccc(O)cc2)CC1 [CU500, (1E,6E)-1-(4-hydroxyphenyl)-7-{2-[4-(methylsulfonyl)piperazin-1-yl]phenyl}hepta-1,6-diene-3,5-dione] | 126 to 131
O=C(/C=C/c1cccc2cc[nH]c12)CC(=O)/C=C/c1cccc2cc[nH]c12 [CU392, (1E,6E)-1,7-bis(1H-indol-7-yl)hepta-1,6-diene-3,5-dione] | 211 to 215
Nc1ccc(OCc2ccccc2)cc1/C=C/C(=O)CC(=O)/C=C/c1ccc(O)cc1 [CU489, (1E,6E)-1-(2-amino-5-benzyloxyphenyl)-7-(4-hydroxyphenyl)hepta-1,6-diene-3,5-dione] | 175 to 179
O=C(/C=C/c1ccc(O)c(Cl)c1)CC(=O)CCc1ccc(O)cc1 [CU546, (E)-1-(3-chloro-4-hydroxyphenyl)-7-(4-hydroxyphenyl)hept-1-ene-3,5-dione] | 45 to 51
CCN(CC)c1ccc(/C=C/C(=O)CC(=O)/C=C/c2ccc(O)cc2)c(OC(=O)c2ccccc2)c1 [CU425, (1E,6E)-1-(2-benzoyloxy-4-diethylaminophenyl)-7-(4-hydroxyphenyl)hepta-1,6-diene-3,5-dione] | 212 to 215
COc1cc(/C=C/C(=O)CC(=O)/C=C/c2c(OC)cccc2OC)ccc1O [CU103, (1E,6E)-1-(2,6-dimethoxyphenyl)-7-(4-hydroxy-3-methoxyphenyl)hepta-1,6-diene-3,5-dione] | 136 to 139
O=C(/C=C/c1ccc(O)cc1)CC(=O)/C=C/c1ccc(N2CCN(Cc3ccccc3)CC2)nc1 [CU332, (1E,6E)-1-[6-(4-benzylpiperazin-1-yl)pyridin-3-yl]-7-(4-hydroxyphenyl)hepta-1,6-diene-3,5-dione] | 132 to 138

SMILES | melting point [°C]
COc1cc(/C=C/C(=O)CC(=O)/C=C/c2c(O)cccc2OC)ccc1O [CU279, (1E,6E)-1-(2-hydroxy-6-methoxyphenyl)-7-(4-hydroxy-3-methoxyphenyl)hepta-1,6-diene-3,5-dione] | 161 to 164
COc1cc(/C=C/C(=O)CC(=O)/C=C/c2ccc(N(C)C)cc2OC)ccc1O [CU154, (1E,6E)-1-(4-dimethylamino-2-methoxyphenyl)-7-(4-hydroxy-3-methoxyphenyl)hepta-1,6-diene-3,5-dione] | 117 to 119
CN(C)c1ccc(/C=C/C(=O)CC(=O)CCc2ccc(O)cc2)c2ccccc12 [CU518, (E)-1-(4-dimethylaminonaphthalen-1-yl)-7-(4-hydroxyphenyl)hept-1-ene-3,5-dione] | 44 to 49
COc1cc(/C=C/C(=O)CC(=O)/C=C/c2ccc(O)cc2)ccc1N(C)C [CU048, (1E,6E)-1-(4-dimethylamino-3-methoxyphenyl)-7-(4-hydroxyphenyl)hepta-1,6-diene-3,5-dione] | 84 to 86
CCN(CC)c1ccc(/C=C/C(=O)CC(=O)/C=C/c2ccc(OC)c(O)c2)c(OC(C)C)c1 [CU440, (1E,6E)-1-(4-diethylamino-2-isopropyloxyphenyl)-7-(3-hydroxy-4-methoxyphenyl)hepta-1,6-diene-3,5-dione] | 117 to 120
O=C(/C=C/c1ccc(O)cc1)CC(=O)/C=C/c1ccc(Cl)c(Cl)c1 [CU045, (1E,6E)-1-(3,4-dichlorophenyl)-7-(4-hydroxyphenyl)hepta-1,6-diene-3,5-dione] | 83 to 85
COc1ccc(OC)c(/C=C/C(=O)CC(=O)/C=C/c2ccc(O)c(OC)c2)c1 [CU076, (1E,6E)-1-(2,5-dimethoxyphenyl)-7-(4-hydroxy-3-methoxyphenyl)hepta-1,6-diene-3,5-dione] | 127 to 129
CCN(CC)c1ccc(/C=C/C(=O)CC(=O)/C=C/c2ccc(N(CC)CC)cc2OC(=O)c2ccccc2)c(OC(=O)c2ccccc2)c1 [CU427, (1E,6E)-1,7-bis(2-benzoyloxy-4-diethylaminophenyl)hepta-1,6-diene-3,5-dione] | 192 to 196
COc1cc(O)cc(/C=C/C(=O)CC(=O)/C=C/c2ccc(O)c(OC)c2)c1 [CU181, (1E,6E)-1-(3-hydroxy-5-methoxyphenyl)-7-(4-hydroxy-3-methoxyphenyl)hepta-1,6-diene-3,5-dione] | 69 to 75
O=C(/C=C/c1ccc(O)cc1)CC(=O)/C=C/c1ccc2[nH]nnc2c1 [CU346, (1E,6E)-1-(1H-benzotriazol-5-yl)-7-(4-hydroxyphenyl)hepta-1,6-diene-3,5-dione] | 211 to 216
O=C(/C=C/c1ccc(O)cc1)CC(=O)/C=C/c1ccccc1-c1cccc2ccccc12 [CU528, (1E,6E)-1-(4-hydroxyphenyl)-7-[2-(naphthalen-1-yl)phenyl]hepta-1,6-diene-3,5-dione] | 95 to 101
O=C(/C=C/c1ccc(O)cc1)CC(=O)/C=C/c1cc(OCc2ccccc2)ccc1-c1ccccc1 [CU527, (1E,6E)-1-(4-benzyloxybiphenyl-2-yl)-7-(4-hydroxyphenyl)hepta-1,6-diene-3,5-dione] | 172 to 178
COc1cccc(OC)c1/C=C/C(=O)CC(=O)/C=C/c1ccc(O)cc1 [CU102, (1E,6E)-1-(2,6-dimethoxyphenyl)-7-(4-hydroxyphenyl)hepta-1,6-diene-3,5-dione] | 165 to 170
COCOc1cccc(O)c1/C=C/C(=O)CC(=O)/C=C/c1ccc(O)c(OC)c1 [CU259, (1E,6E)-1-[2-hydroxy-6-(methoxymethoxy)phenyl]-7-(4-hydroxy-3-methoxyphenyl)hepta-1,6-diene-3,5-dione] | 76 to 81
CN(C)c1ccc(-c2ccccc2)cc1/C=C/C(=O)CC(=O)/C=C/c1ccc(O)cc1 [CU537, (1E,6E)-1-(4-dimethylaminobiphenyl-3-yl)-7-(4-hydroxyphenyl)hepta-1,6-diene-3,5-dione] | 82 to 88
O=C(/C=C/c1ccc2c(c1)OCCO2)CC(=O)/C=C/c1ccc2c(c1)OCCO2 [CU356, (1E,6E)-1,7-bis(1,4-benzodioxan-6-yl)hepta-1,6-diene-3,5-dione] | 184 to 187
O=C(/C=C/c1ccc(O)cc1)CC(=O)/C=C/c1ccc(Br)cc1N1CCN(CCO)CC1 [CU502, (1E,6E)-1-{4-bromo-2-[4-(2-hydroxyethyl)piperazin-1-yl]phenyl}-7-(4-hydroxyphenyl)hepta-1,6-diene-3,5-dione] | 127 to 133
CCn1c2ccccc2c2cc(/C=C/C(=O)CC(=O)/C=C/c3ccc(OC)c(O)c3)ccc21 [CU108, (1E,6E)-1-(9-ethyl-9H-carbazol-3-yl)-7-(3-hydroxy-4-methoxyphenyl)hepta-1,6-diene-3,5-dione] | 100 to 103
COc1cc(/C=C/C(=O)CC(=O)/C=C/c2ccc(O)cc2O)ccc1O [CU257, (1E,6E)-1-(2,4-dihydroxyphenyl)-7-(4-hydroxy-3-methoxyphenyl)hepta-1,6-diene-3,5-dione] | 99 to 108
